Where two headings read alike, the source gives them in different places.
Key:
Caenorhabditis elegans = experiment: Toxicity test, adult Caenorhabditis elegans, 96 well micro plate; format: in vivo; conditions: for mortality at 50 ppm / mortality at 100 ppm / mortality at 200 ppm / mortality at 300 ppm / mortality at 400 ppm: Caenorhabditis elegans
Procedure: Methodology: Toxicity tests were conducted using J2 juveniles of Meloidogyne incognita adult Caenorhabditis elegans collected from nematode-infested tomato plant roots and culture Petri plates, respectively. Test concentrations of 50, 100, 200, 300, or 400 ppm were prepared in 0.2% dimethylsulfoxide (DMSO) in tap water. Aliquots (300 microliters (ul)) were applied to a 96 well micro plate and a 20 ul aqueous solution containing nematodes was added. The number of nematodes in 20 ul ranged from 17 to 30. Micro plates were sealed with Parafilm™ and incubated at room temperature. Similar tests conducted with 0.2% DMSO in tap water served as controls. Nematode mortality was checked at 24, 48, 72, 120, and 168 hr after incubation. Nematodes that were motionless for 30 sec when observed under a stereomicroscope were considered paralyzed and included in mortality counts. Each concentration was replicated five times and mean percent mortality was calculated after correcting for control mortality using Abbott's formula.
Data Analysis: Mortality data were analyzed using PROC PROBIT (SAS) program and LC50 values were estimated.

H. bacteriophora = experiment: Initial petri dish toxicity assay / preliminary studies, H. bacteriophora; format: in vivo, Heterorhabditis bacteriophora; conditions: initial petri dish assays / preliminary studies
Description: The stilbene nucleus is a simple chemical scaffold, and excellent gains in potency can be envisioned from appropriate chemical modification. In addition, other compounds having a similar mode of action have been described, including NPPB, IAA-94, and 9-AC (FIGS. 1-3). This Example 1 describes further toxicity studies with these compounds.
This broad cross resistance supports a role for AT blockers in the action of these compounds.

Drosophila melanogaster = experiment: Toxicity against adult Drosophila melanogaster, sugar solution feeding; format: in vivo; conditions: 48 hr
Procedure: Toxicity tests were conducted using mixed sex adults of D. melanogaster maintained on artificial diet in the department of entomology, Virginia Tech. Test concentrations of 6.25, 12.5, 25, 50 or 100 ppm were prepared in 0.2% dimethyl sulfoxide (DMSO) for DIDS, 9-AC, NPPB, and IAA-94. The above final concentrations were obtained after mixing them in 10 ml of 10% sugar solution. Similar preparations with 0.2% DMSO alone served as controls. One end of a cotton wick was dipped in 0.5 ml of sugar solution and placed on the glass vial containing 10 adult flies of mixed sex. Each concentration of test chemical had 5 replications. Mortality counts of flies were taken 24, 48, and 72 hrs after treatment. Insects without movement upon probing were considered dead. LC50 values and confidence intervals for each chemical were estimated using POLO PLUS software program. The data provided in Tables 3-A and 3-B below confirm that AT blockers are toxic to insects in acute exposures.

[1] = 24 hr, read-out: Corrected Mortality (%)
[2] = 48 hr, read-out: Corrected Mortality (%)
[3] = 72 hr, read-out: Corrected Mortality (%)
[4] = 120 hr, read-out: Corrected Mortality (%)
[5] = 120 hr, read-out: Mortality (%)
[6] = 168 hr, read-out: Corrected Mortality (%)
[7] = 168 hr, read-out: Mortality (%)

With O=S(=O)(O)c1cc(N=C=S)ccc1/C=C/c1ccc(N=C=S)cc1S(=O)(=O)O [DIDS, trans-4,4′-diisothiocyanatostilbene-2,2′-disulfonic acid, reference compound] the mortality at 50 ppm (Caenorhabditis elegans; [1]) was 14%, the mortality at 50 ppm (Caenorhabditis elegans; 24 hr, read-out: Mortality (%)) was 16% and the mortality at 50 ppm (Caenorhabditis elegans; [2]) was 34%. For the same compound, the mortality at 50 ppm (Caenorhabditis elegans; 48 hr, read-out: Mortality (%)) was 36%, the mortality at 50 ppm (Caenorhabditis elegans; [3]) was 56% and the mortality at 50 ppm (Caenorhabditis elegans; 72 hr, read-out: Mortality (%)) was 58%. The mortality at 50 ppm (Caenorhabditis elegans; [4]) was 74%, the mortality at 50 ppm (Caenorhabditis elegans; [5]) was 76% and the mortality at 50 ppm (Caenorhabditis elegans; [6]) was 98%. For the same compound, the mortality at 50 ppm (Caenorhabditis elegans; [7]) was 98%, the mortality at 100 ppm (Caenorhabditis elegans; [1]) was 18% and the mortality at 100 ppm (Caenorhabditis elegans; 24 hr, read-out: Mortality (%)) was 20%. The mortality at 100 ppm (Caenorhabditis elegans; [2]) was 43%, the mortality at 100 ppm (Caenorhabditis elegans; 48 hr, read-out: Mortality (%)) was 45% and the mortality at 100 ppm (Caenorhabditis elegans; [3]) was 68%. The mortality at 100 ppm (Caenorhabditis elegans; 72 hr, read-out: Mortality (%)) was 69%, the mortality at 100 ppm (Caenorhabditis elegans; [4]) was 88% and the mortality at 100 ppm (Caenorhabditis elegans; [5]) was 89%. For the same compound, the mortality at 100 ppm (Caenorhabditis elegans; [6]) was 100%, the mortality at 100 ppm (Caenorhabditis elegans; [7]) was 100% and the mortality at 200 ppm (Caenorhabditis elegans; [1]) was 22%. The mortality at 200 ppm (Caenorhabditis elegans; 24 hr, read-out: Mortality (%)) was 24%, the mortality at 200 ppm (Caenorhabditis elegans; [2]) was 44% and the mortality at 200 ppm (Caenorhabditis elegans; 48 hr, read-out: Mortality (%)) was 46%. For the same compound, the mortality at 200 ppm (Caenorhabditis elegans; [3]) was 77%, the mortality at 200 ppm (Caenorhabditis elegans; 72 hr, read-out: Mortality (%)) was 77% and the mortality at 200 ppm (Caenorhabditis elegans; [4]) was 97%. It also gave a mortality at 200 ppm (Caenorhabditis elegans; [5]) of 97%, a mortality at 200 ppm (Caenorhabditis elegans; [6]) of 100% and a mortality at 200 ppm (Caenorhabditis elegans; [7]) of 100%. It also gave a mortality at 300 ppm (Caenorhabditis elegans; [1]) of 20%, a mortality at 300 ppm (Caenorhabditis elegans; 24 hr, read-out: Mortality (%)) of 22% and a mortality at 300 ppm (Caenorhabditis elegans; [2]) of 52%. The mortality at 300 ppm (Caenorhabditis elegans; 48 hr, read-out: Mortality (%)) was 53%, the mortality at 300 ppm (Caenorhabditis elegans; [3]) was 81% and the mortality at 300 ppm (Caenorhabditis elegans; 72 hr, read-out: Mortality (%)) was 83%. For the same compound, the mortality at 300 ppm (Caenorhabditis elegans; [4]) was 100%, the mortality at 300 ppm (Caenorhabditis elegans; [5]) was 99% and the mortality at 300 ppm (Caenorhabditis elegans; [6]) was 100%. It also gave a mortality at 300 ppm (Caenorhabditis elegans; [7]) of 100%, a mortality at 400 ppm (Caenorhabditis elegans; [1]) of 23% and a mortality at 400 ppm (Caenorhabditis elegans; 24 hr, read-out: Mortality (%)) of 25%. The mortality at 400 ppm (Caenorhabditis elegans; [2]) was 58%, the mortality at 400 ppm (Caenorhabditis elegans; 48 hr, read-out: Mortality (%)) was 59% and the mortality at 400 ppm (Caenorhabditis elegans; [3]) was 90%. The mortality at 400 ppm (Caenorhabditis elegans; 72 hr, read-out: Mortality (%)) was 90%, the mortality at 400 ppm (Caenorhabditis elegans; [4]) was 100% and the mortality at 400 ppm (Caenorhabditis elegans; [5]) was 100%. For the same compound, the mortality at 400 ppm (Caenorhabditis elegans; [6]) was 100%, the mortality at 400 ppm (Caenorhabditis elegans; [7]) was 100% and the “LC50 (ppm)” value (Caenorhabditis elegans; Day 2) was 237 ppm. The “LC50 (ppm)” value (Caenorhabditis elegans; Day 3) was 38 ppm, the “LC50 (ppm)” value (Caenorhabditis elegans; Day 5) was 27 ppm and the “LC50 (ppm)” value (Caenorhabditis elegans; Day 7) was 3 ppm. The “paralytic/lethal effect, sensitivity” value (H. bacteriophora) was “less sensitive” and the “LC50 (ppm)” value (Drosophila melanogaster) was 125.86 ppm.
